Source: patent publication US12077503B2, “Substituted cyclic amides and their use as herbicides” (FMC CORPORATION, priority 2015, dated 2024)

Key:
Format in all cases: in vivo
[1] = system: blackgrass (Alopecurus myosuroides); experiment: Test C postemergence; settings: scale 0 to 100, 0 no effect, 100 complete control
Source text: (§1) Seeds of plant species selected from blackgrass (Alopecurus myosuroides), ryegrass, Italian (Italian ryegrass, Lolium multiflorum), wheat (winter wheat, Triticum aestivum), Galium (catchweed bedstraw, Galium aparine), corn (Zea mays), crabgrass, large (large crabgrass, Digitaria sanguinalis), foxtail, giant (giant foxtail, Setaria faberii), johnsongrass (Sorghum halepense), lambsquarters (Chenopodium album), morningglory (Ipomoea coccinea), nutsedge, yellow (yellow nutsedge, Cyperus esculentus), pigweed (Amaranthus retroflexus), ragweed (common ragweed, Ambrosia elatior), soybean (Glycine max), barnyardgrass (Echinochloa crus-galli), oilseed rape (Brassica napus), waterhemp (common waterhemp, Amaranthus rudis) and velvetleaf (Abutilon theophrasti) were planted into a blend of loam soil and sand and treated preemergence with test chemicals formulated in a non-phytotoxic solvent mixture which included a surfactant.
(§2) At the same time, plants selected from these crop and weed species and also Kochia (Kochia scoparia), oat, wild (wild oat, Avena fatua), and chickweed (common chickweed, Stellaria media) were planted in pots containing Sunshine Redi-Earth® planting medium comprising spaghnum peat moss, vermiculite, starter nutrients and dolomitic limestone and treated with postemergence applications of test chemicals formulated in the same manner. Plants ranged in height from 2 to 18 cm (1- to 4-leaf stage) for postemergence treatments. Treated plants and controls were maintained in a greenhouse for 13 to 15 d, after which time all species were compared to controls and visually evaluated. Plant response ratings, summarized in Table C, are based on a scale of 0 to 100 where 0 is no effect and 100 is complete control. A dash (-) response means no test result.

[2] = system: oilseed rape (Brassica napus); experiment: Test C postemergence; settings: scale 0 to 100, 0 no effect, 100 complete control
Source text: as §1, §2

[3] = system: crabgrass, large (large crabgrass, Digitaria sanguinalis); experiment: Test C postemergence; settings: scale 0 to 100, 0 no effect, 100 complete control
Source text: as §1, §2

[4] = system: pigweed (Amaranthus retroflexus); experiment: Test C postemergence; settings: scale 0 to 100, 0 no effect, 100 complete control
Source text: as §1, §2

[5] = system: Galium (catchweed bedstraw, Galium aparine); experiment: Test C postemergence; settings: scale 0 to 100, 0 no effect, 100 complete control
Source text: as §1, §2

[6] = system: ryegrass, Italian (Italian ryegrass, Lolium multiflorum); experiment: Test C preemergence; settings: for Plant response rating, Ryegrass, Italian: scale 0 to 100, 0 no effect, 100 complete control
Outline: (§3)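 Assessment: visual, 13–15 d after treatment, 0 (no effect) to 100 (complete control) relative to controls. Treatment: preemergence to seeds in loam-sand soil, or postemergence to 1- to 4-leaf plants in peat-based medium. Formulation: non-phytotoxic solvent mixture with surfactant.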

[7] = system: blackgrass (Alopecurus myosuroides); experiment: Test C preemergence; settings: for Plant response rating, Blackgrass: scale 0 to 100, 0 no effect, 100 complete control
Outline: as §3

[8] = system: nutsedge, yellow (yellow nutsedge, Cyperus esculentus); experiment: Test C preemergence; settings: for Plant response rating, Nutsedge, Yellow: scale 0 to 100, 0 no effect, 100 complete control
Outline: as §3

[9] = system: soybean (Glycine max); experiment: Test C preemergence; settings: for Plant response rating, Soybean: scale 0 to 100, 0 no effect, 100 complete control
Outline: as §3

[10] = system: velvetleaf (Abutilon theophrasti); experiment: Test C preemergence; settings: for Plant response rating, Velvetleaf: scale 0 to 100, 0 no effect, 100 complete control
Outline: as §3

[11] = system: foxtail, giant (giant foxtail, Setaria faberii); experiment: Test C preemergence; settings: for Plant response rating, Foxtail, Giant: scale 0 to 100, 0 no effect, 100 complete control
Outline: as §3

[12] = system: ragweed (common ragweed, Ambrosia elatior); experiment: Test C preemergence; settings: for Plant response rating, Ragweed: scale 0 to 100, 0 no effect, 100 complete control
Outline: as §3

[13] = system: wheat (winter wheat, Triticum aestivum); experiment: Test C preemergence; settings: for Plant response rating, Wheat: scale 0 to 100, 0 no effect, 100 complete control
Outline: as §3

[14] = system: oilseed rape (Brassica napus); experiment: Test C preemergence; settings: for Plant response rating, Oilseed Rape: scale 0 to 100, 0 no effect, 100 complete control
Outline: as §3

[15] = system: barnyardgrass (Echinochloa crus-galli); experiment: Test C preemergence; settings: for Plant response rating, Barnyardgrass: scale 0 to 100, 0 no effect, 100 complete control
Outline: as §3

[16] = system: crabgrass, large (large crabgrass, Digitaria sanguinalis); experiment: Test C preemergence; settings: for Plant response rating, Crabgrass, Large: scale 0 to 100, 0 no effect, 100 complete control
Outline: as §3

[17] = system: johnsongrass (Sorghum halepense); experiment: Test C preemergence; settings: for Plant response rating, Johnsongrass: scale 0 to 100, 0 no effect, 100 complete control
Outline: as §3

[18] = system: corn (Zea mays); experiment: Test C preemergence; settings: for Plant response rating, Corn: scale 0 to 100, 0 no effect, 100 complete control
Outline: as §3

[19] = system: morningglory (Ipomoea coccinea); experiment: Test C preemergence; settings: for Plant response rating, Morningglory: scale 0 to 100, 0 no effect, 100 complete control
Outline: as §3

[20] = system: lambsquarters (Chenopodium album); experiment: Test C preemergence; settings: for Plant response rating, Lambsquarters: scale 0 to 100, 0 no effect, 100 complete control
Outline: as §3

[21] = system: waterhemp (common waterhemp, Amaranthus rudis); experiment: Test C preemergence; settings: for Plant response rating, Waterhemp: scale 0 to 100, 0 no effect, 100 complete control
Outline: as §3

[22] = system: Galium (catchweed bedstraw, Galium aparine); experiment: Test C preemergence; settings: for Plant response rating, Galium: scale 0 to 100, 0 no effect, 100 complete control
Outline: as §3

[23] = 31 g ai/ha, 0 is no effect, 100 is complete control

O=C1NCC(c2ccc3c(c2)OC(F)(F)O3)C1C(=O)Nc1cccc(F)c1F (stereo not shown) [Compound 635]
40: Plant response rating, Blackgrass ([1]; 250 g ai/ha) | Plant response rating, Ryegrass, Italian ([6]; 250 g ai/ha) | Plant response rating, Velvetleaf ([10]; 250 g ai/ha) | Plant response rating (scale of 0 to 100), Ragweed [12, 23] | Plant response rating (scale of 0 to 100), Lambsquarters [20, 23] | Plant response rating, Lambsquarters ([20]; 62 g ai/ha)
55: Plant response rating, Galium ([5]; 250 g ai/ha)
75: Plant response rating, Pigweed ([4]; 125 g ai/ha) | Plant response rating, Pigweed ([4]; 250 g ai/ha) | Plant response rating, Johnsongrass ([17]; 62 g ai/ha) | Plant response rating, Corn ([18]; 125 g ai/ha) | Plant response rating (scale of 0 to 100), Waterhemp [21, 23]
45: Plant response rating, Oilseed Rape ([2]; 62 g ai/ha)
80: Plant response rating, Oilseed Rape ([2]; 250 g ai/ha) | Plant response rating, Ragweed ([12]; 125 g ai/ha) | Plant response rating, Ragweed ([12]; 250 g ai/ha) | Plant response rating, Lambsquarters ([20]; 125 g ai/ha) | Plant response rating, Waterhemp ([21]; 62 g ai/ha) | Plant response rating, Galium ([22]; 125 g ai/ha) | Plant response rating, Galium ([22]; 250 g ai/ha)
98: Plant response rating, Crabgrass, Large ([16]; 250 g ai/ha)
10: Plant response rating, Oilseed Rape ([2]; 125 g ai/ha) | Plant response rating, Velvetleaf ([10]; 62 g ai/ha) | Plant response rating, Wheat ([13]; 125 g ai/ha)
20: Plant response rating, Crabgrass, Large ([3]; 31 g ai/ha) | Plant response rating, Ryegrass, Italian ([6]; 125 g ai/ha) | Plant response rating (scale of 0 to 100), Soybean [9, 23]
65: Plant response rating, Pigweed ([4]; 31 g ai/ha) | Plant response rating, Wheat ([13]; 250 g ai/ha) | Plant response rating, Johnsongrass ([17]; 125 g ai/ha)
70: Plant response rating, Crabgrass, Large ([3]; 250 g ai/ha) | Plant response rating, Blackgrass ([7]; 125 g ai/ha) | Plant response rating, Ragweed ([12]; 62 g ai/ha) | Plant response rating, Corn ([18]; 62 g ai/ha)
85: Plant response rating, Soybean ([9]; 62 g ai/ha) | Plant response rating (scale of 0 to 100), Foxtail, Giant [11, 23] | Plant response rating (scale of 0 to 100), Barnyardgrass [15, 23] | Plant response rating, Johnsongrass ([17]; 250 g ai/ha) | Plant response rating, Corn ([18]; 250 g ai/ha) | Plant response rating, Lambsquarters ([20]; 250 g ai/ha) | Plant response rating, Waterhemp ([21]; 125 g ai/ha) | Plant response rating, Waterhemp ([21]; 250 g ai/ha)
5: Plant response rating, Blackgrass ([1]; 125 g ai/ha) | Plant response rating, Ryegrass, Italian ([6]; 62 g ai/ha) | Plant response rating, Soybean ([9]; 125 g ai/ha) | Plant response rating (scale of 0 to 100), Galium [22, 23] | Plant response rating, Galium ([22]; 62 g ai/ha)
25: Plant response rating, Nutsedge, Yellow ([8]; 250 g ai/ha) | Plant response rating (scale of 0 to 100), Oilseed Rape [14, 23] | Plant response rating (scale of 0 to 100), Johnsongrass [17, 23] | Plant response rating, Morningglory ([19]; 62 g ai/ha)
0: Plant response rating, Blackgrass ([1]; 31 g ai/ha) | Plant response rating, Blackgrass ([1]; 62 g ai/ha) | Plant response rating (scale of 0 to 100), Ryegrass, Italian [6, 23] | Plant response rating (scale of 0 to 100), Nutsedge, Yellow [8, 23] | Plant response rating, Nutsedge, Yellow ([8]; 62 g ai/ha) | Plant response rating, Nutsedge, Yellow ([8]; 125 g ai/ha) | Plant response rating (scale of 0 to 100), Velvetleaf [10, 23] | Plant response rating (scale of 0 to 100), Wheat [13, 23] | Plant response rating, Wheat ([13]; 62 g ai/ha) | Plant response rating (scale of 0 to 100), Corn [18, 23] | Plant response rating (scale of 0 to 100), Morningglory [19, 23]
60: Plant response rating, Crabgrass, Large ([3]; 62 g ai/ha) | Plant response rating, Pigweed ([4]; 62 g ai/ha) | Plant response rating, Galium ([5]; 125 g ai/ha) | Plant response rating, Blackgrass ([7]; 62 g ai/ha) | Plant response rating, Soybean ([9]; 250 g ai/ha)
95: Plant response rating, Foxtail, Giant ([11]; 125 g ai/ha) | Plant response rating, Foxtail, Giant ([11]; 250 g ai/ha) | Plant response rating, Barnyardgrass ([15]; 125 g ai/ha) | Plant response rating, Barnyardgrass ([15]; 250 g ai/ha) | Plant response rating, Crabgrass, Large ([16]; 62 g ai/ha) | Plant response rating, Crabgrass, Large ([16]; 125 g ai/ha)
90: Plant response rating, Blackgrass ([7]; 250 g ai/ha) | Plant response rating, Foxtail, Giant ([11]; 62 g ai/ha) | Plant response rating, Oilseed Rape ([14]; 125 g ai/ha) | Plant response rating, Oilseed Rape ([14]; 250 g ai/ha) | Plant response rating, Barnyardgrass ([15]; 62 g ai/ha) | Plant response rating (scale of 0 to 100), Crabgrass, Large [16, 23]
30: Plant response rating (scale of 0 to 100), Blackgrass [7, 23] | Plant response rating, Morningglory ([19]; 125 g ai/ha)
15: Plant response rating, Velvetleaf ([10]; 125 g ai/ha)
50: Plant response rating, Oilseed Rape ([2]; 31 g ai/ha) | Plant response rating, Crabgrass, Large ([3]; 125 g ai/ha) | Plant response rating, Galium ([5]; 31 g ai/ha) | Plant response rating, Galium ([5]; 62 g ai/ha) | Plant response rating, Oilseed Rape ([14]; 62 g ai/ha) | Plant response rating, Morningglory ([19]; 250 g ai/ha)
